# Reference: patent US9808470B2, “Estrogenic components for use in the treatment of neurological disorders” (UNIVERSITE DE LIEGE, priority 2012, dated 2017)
# Key:
# Assay type in all cases: in vivo
# [1] = test system: glial fibrillary acidic protein (GFAP); test: Ex.4 therapeutic HIE rat model: blood serum GFAP ELISA; details: estetrol treated animals (1, 5, 10, 50 mg/kg single ip dose after HI); PND14; vs vehicle
# Method: Blood was withdrawn, centrifuged and the serum samples were stored at −80° C.
# ELISAs for detecting the brain damage markers S100B protein (Catalog# CSB-E08066r, Cusabio Biotech Co., LTD, China), and glial fibrillary acidic protein (GFAP) (Catalog# E90068Ra, Uscn Life sciences Inc., China) in blood serum samples were performed according to the manufacturers' recommendations.
# To study the therapeutic effect of estetrol, newborn rat pups were assigned to one of the following 6 groups at postnatal day 7: sham group (n=29), vehicle group (n=20), 1 mg/kg E4 group (n=16), 5 mg/kg E4 group (n=19), 10 mg/kg day E4 (n=17) and 50 mg/kg day E4 group (n=15). At postnatal day 7 animals were anesthetized with isoflurane (induction, 3.0%; maintenance, 1.5%), and the rat pups from vehicle and E4 groups passed through surgery encompassing left common carotid artery double ligation and cut. After surgery, the pups were returned to their dams and allowed to recover for 1 hour. The pups were then placed in a humidified hypoxic in vivo cabinet (CoyLab). Hypoxia was produced by the inhalation of 11%-8% of oxygen balanced by nitrogen at decreased concentration of oxygen for 20 minutes, followed by inhalation of 8% oxygen and 92% nitrogen at constant concentration for 35 minutes. All the manipulations were performed at 37° C. […]
# [2] = test system: intact cells in hippocampus and cortex; test: Ex.3 neuroprotective HIE rat model: intact cell counting
# Method: Paraformaldehyde-fixed paraffin embedded samples of the removed brains were coronally sectioned at the same level of the hippocampus region in accordance to the Paxinos rat brain atlas (Paxinos and Watson 2007. In: The rat brain in stereotaxic coordinates, 6th edition). Thickness of sections was 5 μm. Hematoxylin-eosin staining was performed. Briefly, sections were deparaffinized in xylene and rehydrated in graded ethanol concentrations before staining. Slides were stained with hematoxylin, rinsed for a few seconds in water, then placed in 1% eosin and washed, dehydrated, and coverslipped.
# Intact cell counting was performed on hematoxylin-eosin-stained sections of the rat pups brains at magnification 400× in 3 fields of the respective brain area. Countings were performed in cortex and hippocampus (regions: dentate gyrus (DG), subgranular zone (SGZ), cornu ammonis (CA1, CA2/CA3)). The sections were analyzed with the aid of a microscope (Olympus BX51, Olympus, Tokyo, Japan), an image scanner (DotSlide Digital Virtual Microscopy, Olympus, Germany) and ImageJ software (NIH, US).
# Intact cells are uninjured. Injured cells are characterized by a pale eosinophilic staining along with non-uniform nuclear densities-shrunken, condensed, or pale and enlarged.
# Newborn rat pups were assigned to one of the following 6 groups from postnatal day 4: Sham group (n=24), Vehicle group (n=14), E4 1 mg/kg/per day group (n=11), E4 5 mg/kg/per day group (n=14), E4 10 mg/kg/per day group (n=14), or E4 50 mg/kg/per day group (n=19). From postnatal day 4, rat pups were intraperitoneally injected either vehicle (Vehicle group) or E4 (1, 5, 10, or 50 mg/kg/per day in accordance to the E4 group assignment) or neither vehicle nor E4 (Sham group). At day 7, 30 minutes after last injection, animals were anesthetized with isoflurane (induction, 3.0%; maintenance, 1.5%), and the rat pups from Vehicle and E4 groups passed through surgery encompassing left common carotid artery double ligation and cut. After the procedure, the pups were returned to their dams and were allowed to recover for 1 hour. The pups were then placed in the humidified hypoxic in vivo cabinet (CoyLab, Grass Lake, Mich., USA). Hypoxia was produced by the inhalation of 11%-8% of oxygen balanced by nitrogen at decreased concentration of oxygen for 20 minutes, followed by inhalation of 8% oxygen and 92% nitrogen at constant concentration for 35 minutes. All the manipulations were performed at 37° C. The Sham group went through similar procedures without left common carotid artery ligation followed by hypoxia nor injection. Rat pups recovered with their dams and reared normally until being sacrificed at postnatal day 14.
# [3] = Ex.2 neonatal HIE rat model, pre-treatment: brain weight; details: E4 5 mg/kg ip day 4-7 before HI; day 14; vs vehicle
# Method: Ischemia was produced by surgery encompassing left common carotid artery double ligation and cut; hypoxia was produced by the inhalation of 11%-8% of oxygen balanced by nitrogen at decreased concentration of oxygen for 20 minutes, followed by inhalation of 8% oxygen and 92% nitrogen at constant concentration for 35 minutes.
# Animals were then perfused transcardially with 0.9% saline solution at 4° C., and then with 4% paraformaldehyde in a 0.1-mol/L phosphate-buffered saline solution (pH 7.4) at 4° C. The brains were quickly isolated, weighed and immersed in the same fixative solution at 4° C. for 24 hours, dehydrated with a graded series of ethanol and xylene, and embedded in paraffin.
# After delivery, newborn rat pups were assigned to one of the following 4 groups: Sham group, Vehicle group, E4 5 mg/kg/per day group and E4 50 mg/kg/per day group. From day 4 to day 7 inclusive, rat pups were injected intraperitoneally either vehicle (Vehicle group) or E4 (5 mg/kg or 50 mg/kg in accordance to the group assignment) or not injected at all (Sham group). […]
structure (smiles),measurement,setting,value
"C[C@]12CC[C@@H]3c4ccc(O)cc4CC[C@H]3[C@@H]1[C@@H](O)[C@@H](O)[C@@H]2O [E4, 1,3,5(10)-estratrien-3,15α,16α,17β-tetrol]",expression of GFAP protein in blood serum,[1],significantly lower expression
same,number of intact cells per visual field,"[2]; 1 mg/kg E4 ip PND4-7 before HI, CA1",43.2±2.435
same,number of intact cells per visual field,"[2]; 1 mg/kg E4 ip PND4-7 before HI, CA2/CA3",32.8±2.808
same,number of intact cells per visual field,"[2]; 1 mg/kg E4 ip PND4-7 before HI, SGZ",35.6±2.75
same,number of intact cells per visual field,"[2]; 5 mg/kg E4 ip PND4-7 before HI, DG",121.0±8.098
same,number of intact cells per visual field,"[2]; 5 mg/kg E4 ip PND4-7 before HI, SGZ",42.846±3.884
same,number of intact cells per visual field,"[2]; 10 mg/kg E4 ip PND4-7 before HI, CA1",57.4±4.566
same,number of intact cells per visual field,"[2]; 10 mg/kg E4 ip PND4-7 before HI, SGZ",47.6±4.672
same,number of intact cells per visual field,"[2]; 50 mg/kg E4 ip PND4-7 before HI, CA2/CA3",53.0±4.7
same,number of intact cells per visual field,"[2]; 50 mg/kg E4 ip PND4-7 before HI, SGZ",30.714±3.615
same,number of intact cells per visual field,"[2]; 50 mg/kg E4 ip PND4-7 before HI, cortex",76.286±3.962
same,brain weight,[3],significantly higher
